Values after ≈ are worked out from the molar mass of the structure shown. Values joined by “and” are separate entries in the source; they are usually repeats but may differ in a detail not shown here. Identical values can stand only once. Like-named read-outs stand apart in the source and are kept apart here.
Experiments:
[1] = Solubility of CRF in various buffer solutions; type: physicochemical; details: for solubility: read-out: CRF solubility (gross weight)
Procedure: (§1) In an effort to develop liquid formulations of CRF useful for commercial pharmaceutical purposes, experiments designed to measure the solubility of CRF in a variety of different buffer solutions were carried out. Specifically, CRF was added in increasing amounts to a variety of different buffer solutions at various different concentrations and pH's, either in the presence or absence of other excipient additives and the solubility of the CRF product was determined. Table 1 summarizes the results of these experiments measuring the solubility of CRF in various phosphate, citrate and acetate buffers, either in the presence or absence of various excipients such as NaCl and mannitol. CRF solubility is expressed in gross weight of CRF in mg/ml of solution.

[2] = Solubility of CRF in various non-volatile buffer solutions; type: physicochemical
Procedure: as §1
Next, because it is known that certain buffers may be volatilized when lyophilized, further experiments were conducted as described above to examine the solubility of CRF in various other non-volatile buffer solutions.

- CRF solubility ([1]; acetate buffer between pH 4 and 5 without added NaCl): very soluble
- CRF solubility ([1]; citrate buffer between pH 4 and 6): < 200 µg/mL
- solubility ([1]; citrate buffer, pH 4, aqueous buffer, pH 4.0, 25 mM Citrate, 150 mM NaCl): 20 µg/mL (≈ 4.2 µM)
- solubility ([1]; citrate buffer, pH 4, aqueous buffer, pH 4.0, 25 mM Citrate): 40 µg/mL (≈ 8.41 µM)
- solubility ([1]; citrate buffer, pH 5.1, aqueous buffer, pH 5.1, 25 mM Citrate, 150 mM NaCl): 10 µg/mL (≈ 2.1 µM)
- solubility ([1]; citrate buffer, pH 5.1, aqueous buffer, pH 5.1, 25 mM Citrate): 20 µg/mL (≈ 4.2 µM)
- CRF solubility (gross weight) ([1]; pH 2.0, 10 mM PO4, 138 mM NaCl): 50000 µg/mL
- CRF solubility (gross weight) ([1]; pH 4.08, 5 mM Citrate): 200 µg/mL
- CRF solubility (gross weight) ([1]; pH 4.08, 5 mM Citrate, 150 mM NaCl): 160 µg/mL
- CRF solubility (gross weight) ([1]; pH 4.2, 5 mM HOAC, 150 mM NaCl): 1170 µg/mL
- CRF solubility (gross weight) ([1]; pH 4.2, 25 mM HOAc): 29000 µg/mL
- CRF solubility (gross weight) ([1]; pH 4.26, 20 mM HOAc, 5% mannitol): 14500 µg/mL
- CRF solubility (gross weight) ([1]; pH 4.34, 20 mM HOAc, 5% mannitol): 11200 µg/mL
- CRF solubility (gross weight) ([1]; pH 4.4, 5 mM HOAC): 33000 µg/mL
- CRF solubility (gross weight) ([1]; pH 4.45, 20 mM HOAc, 5% mannitol): 13800 µg/mL
- CRF solubility (gross weight) ([1]; pH 4.49, 25 mM HOAc): 5340 µg/mL
- CRF solubility (gross weight) ([1]; pH 4.49, 25 mM HOAc, 150 mM NaCl): 280 µg/mL
- CRF solubility (gross weight) ([1]; pH 4.52, 20 mM HOAc, 5% mannitol): 12500 µg/mL
- CRF solubility (gross weight) ([1]; pH 4.6, 5 mM HOAC, 5% mannitol): 2200 µg/mL
- CRF solubility (gross weight) ([1]; pH 4.7, 5 mM HOAC, 1% mannitol): 1960 µg/mL
- CRF solubility (gross weight) ([1]; pH 4.72, 5 mM HOAC, 1% Tween): 1970 µg/mL
- CRF solubility (gross weight) ([1]; pH 4.73, 20 mM HOAc, 5% mannitol): 1530 µg/mL
- CRF solubility (gross weight) ([1]; pH 4.81, 5 mM HOAC): 1130 µg/mL
- CRF solubility (gross weight) ([1]; pH 4.9, 25 mM HOAc): 370 µg/mL
- CRF solubility (gross weight) ([1]; pH 4.9, 25 mM HOAc, 150 mM NaCl): 140 µg/mL
- CRF solubility (gross weight) ([1]; pH 4.92, 5 mM Citrate): 30 µg/mL
- CRF solubility (gross weight) ([1]; pH 4.92, 5 mM Citrate, 150 mM NaCl): 10 µg/mL
- CRF solubility (gross weight) ([1]; pH 4.94, 20 mM HOAc, 5% mannitol): 70 µg/mL
- CRF solubility (gross weight) ([1]; pH 5.0, 5 mM HOAC): 130 µg/mL
- CRF solubility (gross weight) ([1]; pH 5.23, 20 mM HOAc, 5% mannitol): 40 µg/mL
- CRF solubility (gross weight) ([1]; pH 5.84, 5 mM Citrate): 40 µg/mL
- CRF solubility (gross weight) ([1]; pH 5.84, 5 mM Citrate, 150 mM NaCl): 20 µg/mL
- CRF solubility (gross weight) ([1]; pH 6.0, 5 mM HOAC): 30 µg/mL
- CRF solubility (gross weight) ([1]; pH 6.1, 25 mM Citrate): 100 µg/mL
- CRF solubility (gross weight) ([1]; pH 6.1, 25 mM Citrate, 150 mM NaCl): 70 µg/mL
- CRF solubility (gross weight) ([1]; pH 6.24, 25 mM HOAc): 90 µg/mL
- CRF solubility (gross weight) ([1]; pH 6.24, 25 mM HOAc, 150 mM NaCl): 50 µg/mL
- CRF solubility (gross weight) ([1]; pH 7.1, 10 mM PO4, 138 mM NaCl): 480 µg/mL and 840 µg/mL
- CRF solubility ([1]; phosphate buffer between pH 2 and 3.6): very soluble
- solubility ([1]; phosphate buffer, pH 3.6, aqueous buffer, pH 3.6, 10 mM PO4, 138 mM NaCl): 2640 µg/mL (≈ 555 µM)
- solubility ([1]; phosphate buffer, pH 4.2, aqueous buffer, pH 4.2, 10 mM PO4, 138 mM NaCl): 290 µg/mL (≈ 61 µM)
- solubility ([1]; phosphate buffer, pH 4.5, aqueous buffer, pH 4.5, 10 mM PO4, 138 mM NaCl): 620 µg/mL (≈ 130 µM)
- solubility ([1]; phosphate buffer, pH 5.6, aqueous buffer, pH 5.6, 10 mM PO4, 138 mM NaCl): 310 µg/mL (≈ 65.2 µM)
- solubility ([1]; phosphate buffer, pH 6.02, aqueous buffer, pH 6.02, 5 mM PO4): 80 µg/mL (≈ 16.8 µM)
- solubility ([1]; phosphate buffer, pH 6.7, aqueous buffer, pH 6.7, 10 mM PO4, 138 mM NaCl): 520 µg/mL (≈ 109 µM)
- solubility ([1]; phosphate buffer, pH 6.96, aqueous buffer, pH 6.96, 5 mM PO4): 470 µg/mL (≈ 98.8 µM)
- solubility ([1]; phosphate buffer, pH 7.32, aqueous buffer, pH 7.32, 20 mM PO4): 1460 µg/mL (≈ 307 µM)
- solubility ([1]; phosphate buffer, pH 7.7, aqueous buffer, pH 7.7, 5 mM PO4): 460 µg/mL (≈ 96.7 µM)
- CRF solubility ([2]; 10 mM Phosphate, pH 7.3): 3.0 net mg/ml
- CRF solubility ([2]; 10 mM Phosphate, pH 7.3 + 25 mM ascorbate): 1.2 net mg/ml
- CRF solubility ([2]; 10 mM Phosphate, pH 7.3 + 0.25% arginine): 2.0 net mg/ml
- CRF solubility ([2]; 10 mM Phosphate, pH 7.3 + 0.25% glycine): 2.2 net mg/ml
- CRF solubility ([2]; 25 mM Ascorbic, pH 4.0): 4.5 net mg/ml
- CRF solubility ([2]; 25 mM Lactic, pH 4.0): 1.9 net mg/ml
- CRF solubility ([2]; 25 mM Succinic, pH 4.0): 4.2 net mg/ml
- CRF solubility ([2]; 25 mM Tartaric, pH 4.0): 0.2 net mg/ml
- CRF solubility ([2]; ascorbic, lactic, succinic and phosphate buffers tested): extremely soluble
Compound: CC[C@H](C)[C@H](NC(=O)[C@@H](NC(=O)[C@H](CCC(=O)O)NC(=O)[C@H](CCSC)NC(=O)[C@H](CC(C)C)NC(=O)[C@H](CCCCN)NC(=O)[C@H](CCCNC(=N)N)NC(=O)[C@H](CC(N)=O)NC(=O)[C@H](CO)NC(=O)[C@H](Cc1c[nH]cn1)NC(=O)[C@H](C)NC(=O)[C@H](CCC(N)=O)NC(=O)[C@H](CCC(N)=O)NC(=O)[C@H](C)NC(=O)[C@H](CC(C)C)NC(=O)[C@H](CCC(N)=O)NC(=O)[C@H](CCC(=O)O)NC(=O)[C@H](C)NC(=O)[C@H](CCCNC(=N)N)NC(=O)[C@H](C)NC(=O)[C@H](CCSC)NC(=O)[C@H](CCC(=O)O)NC(=O)[C@H](CC(C)C)NC(=O)[C@@H](NC(=O)[C@H](CCC(=O)O)NC(=O)[C@H](CCCNC(=N)N)NC(=O)[C@H](CC(C)C)NC(=O)[C@H](CC(C)C)NC(=O)[C@H](Cc1c[nH]cn1)NC(=O)[C@H](Cc1ccccc1)NC(=O)[C@@H](NC(=O)[C@H](CC(C)C)NC(=O)[C@H](CC(=O)O)NC(=O)[C@H](CC(C)C)NC(=O)[C@H](CO)NC(=O)[C@@H](NC(=O)[C@@H]1CCCN1C(=O)[C@@H]1CCCN1C(=O)[C@H](CCC(=O)O)NC(=O)[C@H](CCC(=O)O)NC(=O)[C@@H](N)CO)[C@@H](C)CC)[C@@H](C)O)C(C)C)[C@@H](C)CC)C(N)=O [CRF]
